Assay results reported in publication PMC9038204, “SNX27–Retromer directly binds ESCPE-1 to transfer cargo proteins during endosomal recycling” (PLoS Biology, 2022).
Where no end group is shown, it is not given here.

What was measured:
[1] = test system: HeLa cells, surface ITGA5; experiment: Surface biotinylation, cell surface level of ITGA5; assay type: cell-based
Method: (§1) For western blotting, cells were lysed in PBS with 1% (v/v) Triton X-100 and protease inhibitor cocktail. The protein concentration was determined with a BCA assay kit (Thermo Fisher Scientific, USA), and equal amounts were resolved on NuPAGE 4% to 12% precast gels (Invitrogen, USA). Blotting was performed onto polyvinylidene fluoride membranes (Immobilon-FL; EMD Millipore, USA) followed by detection using the Odyssey infrared scanning system (LI-COR Biosciences, USA). For GFP-based immunoprecipitations, HEK-293T cells were lysed 48 hours after transfection in immunoprecipitation buffer (50 mM Tris-HCl, 0.5% (v/v) NP-40, and Roche protease inhibitor cocktail) and subjected to GFP trap (ChromoTek, Germany). Immunoblotting was performed using standard procedures. Detection was performed on an Odyssey infrared scanning system (LI-COR Biosciences) using fluorescently labeled secondary antibodies. In using the Odyssey, we routinely performed western blot analysis where a single blot is simultaneously probed with antibodies against 2 proteins of interest (distinct antibody species) followed by visualization with the corresponding secondary antibodies conjugated to distinct spectral dyes.
(§2) For surface biotinylation experiments, fresh Sulfo-NHS-SS Biotin (Thermo Fisher Scientific, #21217) was dissolved in ice-cold PBS at pH 7.8 at a final concentration of 0.2 mg/ml. Cells were washed twice in ice-cold PBS and placed on ice to slow down the endocytic pathway. Next, cells were incubated with the biotinylation reagent for 30 minutes at 4°C followed by incubation in TBS for 10 minutes to quench the unbound biotin. The cells were then lysed in lysis buffer and subjected to Streptavidin beads-based affinity isolation (GE Healthcare, USA).

[2] = test system: HeLa cells, surface GLUT1; experiment: Surface biotinylation, cell surface level of GLUT1; assay type: cell-based
Method: as §1, §2

hSNX27FL K495D = target: T1, hSNX27FL K495D (Homo sapiens, UniProt Q96L92, K495D); experiment: ITC, hSNX1 peptide 75-92 against hSNX27FL K495D; assay type: binding; details: 25°C, 600 μM SNX1_75-92 into 20 μM hSNX27FL K495D
T1 construct: FL, full-length; ITC, isothermal titration calorimetry; His-tag followed by a TEV cleavage site (N); made in house; host or cells: E. coli BL21 (DE3)
Excerpt: (§3) For bacterial expression, full-length mouse SNX1 with an amino-terminal His-tag (mSNX1FL hereafter) was cloned into the pMW172Kan vector [75], and the truncated mSNX1 construct containing residues 1 to 139 was cloned into pGEX4T-2 vector for expression as a thrombin-cleavable amino-terminal GST fusion protein. DNA encoding full-length mouse SNX27 (mSNX27FL hereafter) was inserted into the pMCSG7 vector [76] by the ligation-independent cloning (LIC) approach. Human SNX27 constructs, hSNX27FL, hSNX27FERM, and hSNX27FL single-site mutants R437D, K495D, K496D, R498D, and K501D were cloned into the pET-28a vector by GenScript and codon optimized for bacterial protein expression. An additional TEV cleavage site was inserted between the amino-terminal His-tag and hSNX27 coding sequences.
(§4) All microcalorimetry experiments were conducted at 25°C using a PEAQ ITC (Malvern, UK) in 50 mM HEPES (pH 7.5), 200 mM NaCl, 5% glycerol, and 1 mM β-ME (ITC buffer). […]
(§5) The ITC experiments were conducted with 1 injection of 0.4 μL followed by a series of 12 injections of 3.2 μL each with 180-second intervals and a stirring speed of 850 rpm. […] Data were analyzed with Malvern software package by fitting and normalized data to a single-site binding model, yielding the thermodynamic parameters Kd, ΔH, ΔG, and −TΔS for all binding experiments. […]

hSNX27FL R498D = target: T2, hSNX27FL R498D (Homo sapiens, UniProt Q96L92, R498D); experiment: ITC, hSNX1 peptide 75-92 against hSNX27FL R498D; assay type: binding; details: 25°C, 600 μM SNX1_75-92 into 20 μM hSNX27FL R498D
T2 construct: FL, full-length; ITC, isothermal titration calorimetry; His-tag followed by a TEV cleavage site (N); made in house; host or cells: E. coli BL21 (DE3)
Excerpt: as §3, §4, §5

hSNX27FL K501D = target: T3, hSNX27FL K501D (Homo sapiens, UniProt Q96L92, K501D); experiment: ITC, hSNX1 peptide 75-92 against hSNX27FL K501D; assay type: binding; details: 25°C, 600 μM SNX1_75-92 into 20 μM hSNX27FL K501D
T3 construct: FL, full-length; ITC, isothermal titration calorimetry; His-tag followed by a TEV cleavage site (N); made in house; host or cells: E. coli BL21 (DE3)
Excerpt: as §3, §4, §5

[3] = target: T4, mSNX27FL preincubated with competing peptide (Mus musculus, UniProt Q3UHD6); experiment: Competitive ITC of hSNX2 16-33 and hSNX1 75-92 with mSNX27FL; assay type: binding; details: 25°C
T4 construct: DNA encoding full-length mouse SNX27 (mSNX27FL hereafter) was inserted into the pMCSG7 vector; made in house; host or cells: Escherichia coli BL21 CodonPlus (DE3)
Method: All microcalorimetry experiments were conducted at 25°C using a PEAQ ITC (Malvern, UK) in 50 mM HEPES (pH 7.5), 200 mM NaCl, 5% glycerol, and 1 mM β-ME (ITC buffer). All proteins were purified by SEC using the same buffer prior to ITC experiments to avoid buffer mismatches. To measure binding of SNX27 to SNX1 proteins, 800 μM of hSNX27FERM was titrated into 20 μM of GST-mSNX1_1-139 or His-SNX1FL. For the binding of SNX1 and SNX2 peptides to SNX27, peptides were diluted 10-fold to 800 μM in ITC buffer peptides and titrated into 20 μM SNX27FL proteins containing the same 1:10 ratio of peptide buffer (100 mM Tris-HCl, pH 10.6). […] For ITC experiment using SNX1_75-92 against hSNX27 wild-type and single-site mutants, 600 μM SNX1_75-92 peptide was titrated into 20 μM hSNX27 proteins.
The ITC experiments were conducted with 1 injection of 0.4 μL followed by a series of 12 injections of 3.2 μL each with 180-second intervals and a stirring speed of 850 rpm. The heat exchange of interactions was obtained through integrating the observed peaks and background correction by subtracting the heats of dilution. Data were analyzed with Malvern software package by fitting and normalized data to a single-site binding model, yielding the thermodynamic parameters Kd, ΔH, ΔG, and −TΔS for all binding experiments. […]

[4] = relative to HeLa = 100, mean of n = 3, Fig. 6D
[5] = relative to HeLa = 100, replicate n1, Fig. 6D
[6] = relative to HeLa = 100, replicate n2, Fig. 6D
[7] = relative to HeLa = 100, replicate n3, Fig. 6D

For +GFP-SNX1, the “cell surface ITGa5, Mean 2” value [1, 4] was 94.91, the “cell surface ITGa5” value [1, 5] was 92.6175 and the “cell surface ITGa5” value [1, 6] was 101.027. The “cell surface ITGa5” value [1, 7] was 91.0806, the “cell surface GLUT1, Mean 2” value [2, 4] was 89.92 and the “cell surface GLUT1” value [2, 5] was 81.0353. For the same substance, the “cell surface GLUT1” value [2, 6] was 95.6847 and the “cell surface GLUT1” value [2, 7] was 93.0328.

NGIHEEQDQEPQDLFADA [SNX1_75-92] was tested, and the Kd (hSNX27FL K495D) was “no detectable binding”, the Kd (hSNX27FL K495D; listed as hSNX175-92) was “No binding detected” and the Kd (hSNX27FL R498D) was “no detectable binding”. The Kd (hSNX27FL R498D; listed as hSNX175-92) was “No binding detected”, the Kd (hSNX27FL K501D) was “no detectable binding” and the Kd (hSNX27FL K501D; listed as hSNX175-92) was “No binding detected”.

With TDFEDLEDGEDLFTSTVS [SNX2_16-33] the Kd ([3]; hSNX2 16-33 titrated into mSNX27FL preincubated with 2-fold molar excess hSNX1 75-92) was “binding is blocked” and the Kd ([3]; hSNX2 16-33 titrated into mSNX27FL preincubated with 2-fold molar excess hSNX1 75-92, listed as hSNX216-33) was “No binding detected”.
